Experimental data from patent US12227496B2 (BRISTOL-MYERS SQUIBB COMPANY, priority 2019, dated 2025).

Molecular target: T1, human FXR (Homo sapiens, UniProt Q96RI1)
T1 construct: expressed in transfected cells; host or cells: HEK293 cells stably carrying a 5xGal4-response-element firefly luciferase reporter, transiently transfected with pcDNA3.1-Gal4-FXR
T1 sequence (Q96RI1 262-486 limits assumed): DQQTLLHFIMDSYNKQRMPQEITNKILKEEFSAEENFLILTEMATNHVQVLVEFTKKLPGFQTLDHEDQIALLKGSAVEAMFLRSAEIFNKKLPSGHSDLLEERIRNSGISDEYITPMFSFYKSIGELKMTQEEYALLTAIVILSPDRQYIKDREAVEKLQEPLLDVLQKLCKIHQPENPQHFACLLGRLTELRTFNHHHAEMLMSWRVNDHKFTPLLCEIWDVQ
Assay: transient human FXR/Gal4-luciferase reporter assay
Assay type: cell-based
Settings: Gal4-hFXR LBD fusion, luciferase reporter in HEK293 cells; response relative to 8 μM GW-4064
Method in brief: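 HEK293 cells stably carrying a 5×Gal4-response-element firefly luciferase reporter were transiently transfected with Gal4-hFXR. They were then incubated overnight at 37 °C with compound serial dilutions in medium containing 10% charcoal/dextran-stripped FBS. Luminescence was read after Steady-Glo addition.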

SMILES	EC50 [nM]
COCc1coc(-c2cccc(N(CC34CCC(c5nc(C6CC6)no5)(CC3)CC4)C(=O)C3CCOCC3)c2)n1 [Example 53, N-((4-(3-cyclopropyl-1,2,4-oxadiazol-5-yl)bicyclo[2.2.2]octan-1-yl)methyl)-N-(3-(4-(methoxymethyl)oxazol-2-yl)phenyl)tetrahydro-2H-pyran-4-carboxamide]	189
O=C(C1CCOCC1)N(CC12CCC(c3nc(C4CC4)no3)(CC1)CC2)c1cccc(-c2cc(C3CC3)no2)c1 [Example 153, N-((4-(3-cyclopropyl-1,2,4-oxadiazol-5-yl)bicyclo[2.2.2]octan-1-yl)methyl)-N-(3-(3-cyclopropylisoxazol-5-yl)phenyl)tetrahydro-2H-pyran-4-carboxamide]	57
Cn1nc(C2CC2)cc1C12CCC(CN(C(=O)C3CCOCC3)c3cccc(-c4cc(C5CC5)no4)c3)(CC1)CC2 [Example 139, N-((4-(3-cyclopropyl-1-methyl-1H-pyrazol-5-yl)bicyclo[2.2.2]octan-1-yl)methyl)-N-(3-(3-cyclopropylisoxazol-5-yl)phenyl)tetrahydro-2H-pyran-4-carboxamide]	87
Cn1nc(C2CC2)cc1C12CCC(CN(C(=O)C3CCOCC3)c3cccc(-c4cc(C5CC5)on4)c3)(CC1)CC2 [Example 132, N-((4-(3-cyclopropyl-1-methyl-1H-pyrazol-5-yl)bicyclo[2.2.2]octan-1-yl)methyl)-N-(3-(5-cyclopropylisoxazol-3-yl)phenyl)tetrahydro-2H-pyran-4-carboxamide]	227
CN1CCC(C(=O)N(CC23CCC(c4noc(C(C)(C)C)n4)(CC2)CC3)c2cccc(-c3nc(C4CC4)no3)c2)CC1 [Example 118, N-((4-(5-(tert-butyl)-1,2,4-oxadiazol-3-yl)bicyclo[2.2.2]octan-1-yl)methyl)-N-(3-(3-cyclopropyl-1,2,4-oxadiazol-5-yl)phenyl)-1-methylpiperidine-4-carboxamide]	1950
COc1cc(-c2cccc(N(CC34CCC(c5nc(C6CC6)no5)(CC3)CC4)C(=O)C3CCCCC3)c2)ccn1 [Example 75, N-((4-(3-cyclopropyl-1,2,4-oxadiazol-5-yl)bicyclo[2.2.2]octan-1-yl)methyl)-N-(3-(2-methoxypyridin-4-yl)phenyl)cyclohexane carboxamide]	129
O=C(C1CCOCC1)N(CC12CCC(c3nc(CC4CC4)no3)(CC1)CC2)c1cccc(-c2nc(C3CC3)no2)c1 [Example 45, N-(3-(3-cyclopropyl-1,2,4-oxadiazol-5-yl)phenyl)-N-((4-(3-(cyclopropylmethyl)-1,2,4-oxadiazol-5-yl)bicyclo[2.2.2]octan-1-yl)methyl)tetrahydro-2H-pyran-4-carboxamide]	278
CC(C)(C)c1noc(C23CCC(CN(C(=O)C4CCC(F)(F)CC4)c4cccc(-c5cc(C6CC6)no5)c4)(CC2)CC3)n1 [Example 147, N-((4-(3-(tert-butyl)-1,2,4-oxadiazol-5-yl)bicyclo[2.2.2]octan-1-yl)methyl)-N-(3-(3-cyclopropylisoxazol-5-yl)phenyl)-4,4-difluorocyclohexane-1-carboxamide]	205
O=C(C1CCCCC1)N(CC12CCC(c3nc(C4CC4)no3)(CC1)CC2)c1cccc(-c2nc(C3CC3)no2)c1 [Example 13, N-((4-(3-cyclopropyl-1,2,4-oxadiazol-5-yl)bicyclo[2.2.2]octan-1-yl)methyl)-N-(3-(3-cyclopropyl-1,2,4-oxadiazol-5-yl)phenyl)cyclohexanecarboxamide]	82
CN1CCC(C(=O)N(CC23CCC(c4cc(C5CC5)nn4C)(CC2)CC3)c2cccc(-c3cc(C4CC4)no3)c2)CC1 [Example 140, N-((4-(3-cyclopropyl-1-methyl-1H-pyrazol-5-yl)bicyclo[2.2.2]octan-1-yl)methyl)-N-(3-(3-cyclopropylisoxazol-5-yl)phenyl)-1-methylpiperidine-4-carboxamide]	2640
CC(F)(F)c1nc(C23CCC(CN(C(=O)C4CCC(F)(F)CC4)c4cccc(-c5cc(C6CC6)no5)c4)(CC2)CC3)no1 [Example 150, N-(3-(3-cyclopropylisoxazol-5-yl)phenyl)-N-((4-(5-(1,1-difluoroethyl)-1,2,4-oxadiazol-3-yl)bicyclo[2.2.2]octan-1-yl)methyl)-4,4-difluorocyclohexane-1-carboxamide]	38
CCOc1ccnc(-c2cccc(N(CC34CCC(c5nc(C6CC6)no5)(CC3)CC4)C(=O)C3CCCCC3)c2)c1 [Example 77, N-((4-(3-cyclopropyl-1,2,4-oxadiazol-5-yl)bicyclo[2.2.2]octan-1-yl)methyl)-N-(3-(4-ethoxypyridin-2-yl)phenyl)cyclohexane carboxamide]	268
COC(=O)C1CC1c1cccc(N(CC23CCC(c4nc(C)no4)(CC2)CC3)C(=O)C2CCCCC2)c1 (single isomer, unassigned) [Example 102, Methyl 2-(3-(N-((4-(3-methyl-1,2,4-oxadiazol-5-yl)bicyclo[2.2.2]octan-1-yl)methyl)cyclohexanecarboxamido)phenyl)cyclopropane-1-carboxylate]	518
COc1cc(-c2cccc(N(CC34CCC(c5nc(C)no5)(CC3)CC4)C(=O)C3CCCCC3)c2)ccn1 [Example 73, N-(3-(2-methoxypyridin-4-yl)phenyl)-N-((4-(3-methyl-1,2,4-oxadiazol-5-yl)bicyclo[2.2.2]octan-1-yl)methyl)cyclohexane carboxamide]	517
CCOc1ncc(-c2cccc(N(CC34CCC(c5nc(C)no5)(CC3)CC4)C(=O)C3CCCCC3)c2)o1 [Example 10, N-(3-(2-ethoxyoxazol-5-yl)phenyl)-N-((4-(3-methyl-1,2,4-oxadiazol-5-yl)bicyclo[2.2.2]octan-1-yl)methyl)cyclohexanecarboxamide]	71
CC(F)(F)c1nc(C23CCC(CN(C(=O)C4CCC(F)(F)CC4)c4ccc(F)c(-c5ccc(S(C)(=O)=O)cc5)c4)(CC2)CC3)no1 [Example 107, N-((4-(5-(1,1-difluoroethyl)-1,2,4-oxadiazol-3-yl)bicyclo[2.2.2]octan-1-yl)methyl)-4,4-difluoro-N-(6-fluoro-4′-(methylsulfonyl)-[1,1′-biphenyl]-3-yl)cyclohexane-1-carboxamide]	1020
CC(C)(C)c1nc(C23CCC(CN(C(=O)C4CCC(F)(F)CC4)c4cccc(-c5cc(C6CC6)no5)c4)(CC2)CC3)no1 [Example 148, N-((4-(5-(tert-butyl)-1,2,4-oxadiazol-3-yl)bicyclo[2.2.2]octan-1-yl)methyl)-N-(3-(3-cyclopropylisoxazol-5-yl)phenyl)-4,4-difluorocyclohexane-1-carboxamide]	107
Cc1cn(-c2cccc(N(CC34CCC(c5nc(C(C)(C)C)no5)(CC3)CC4)C(=O)C3CCC(F)(F)CC3)c2)cn1 [Example 142, N-((4-(3-(tert-butyl)-1,2,4-oxadiazol-5-yl)bicyclo[2.2.2]octan-1-yl)methyl)-4,4-difluoro-N-(3-(4-methyl-1H-imidazol-1-yl)phenyl)cyclohexane-1-carboxamide]	721
CCn1cc(-c2cccc(N(CC34CCC(c5nc(C6CC6)no5)(CC3)CC4)C(=O)C3CCOCC3)c2)oc1=O [Example 51, N-((4-(3-cyclopropyl-1,2,4-oxadiazol-5-yl)bicyclo[2.2.2]octan-1-yl)methyl)-N-(3-(3-ethyl-2-oxo-2,3-dihydrooxazol-5-yl)phenyl)tetrahydro-2H-pyran-4-carboxamide]	1190
CC(C)(C)c1noc(C23CCC(CN(C(=O)C4CCC(F)(F)CC4)c4cccc(-c5cc(C6CC6)on5)c4)(CC2)CC3)n1 [Example 159, N-((4-(3-(tert-butyl)-1,2,4-oxadiazol-5-yl)bicyclo[2.2.2]octan-1-yl)methyl)-N-(3-(5-cyclopropylisoxazol-3-yl)phenyl)-4,4-difluorocyclohexane-1-carboxamide]	78
CN1CCC(C(=O)N(CC23CCC(c4nc(C5CC5)no4)(CC2)CC3)c2cccc(-c3cnc(C4CC4)o3)c2)CC1 [Example 24, N-((4-(3-cyclopropyl-1,2,4-oxadiazol-5-yl)bicyclo[2.2.2]octan-1-yl)methyl)-N-(3-(2-cyclopropyloxazol-5-yl)phenyl)-1-methylpiperidine-4-carboxamide]	4800
Cn1nc(C2CC2)cc1C12CCC(CN(C(=O)C3CCOCC3)c3cccc(-c4ccc(S(C)(=O)=O)cc4)c3)(CC1)CC2 [Example 134, N-((4-(3-cyclopropyl-1-methyl-1H-pyrazol-5-yl)bicyclo[2.2.2]octan-1-yl)methyl)-N-(4′-(methylsulfonyl)-[1,1′-biphenyl]-3-yl)tetrahydro-2H-pyran-4-carboxamide]	511
O=C(C1CCCOC1)N(CC12CCC(c3nc(C4CC4)no3)(CC1)CC2)c1cccc(-c2nc(C3CC3)no2)c1 (racemic) [Example 16, N-((4-(3-cyclopropyl-1,2,4-oxadiazol-5-yl)bicyclo[2.2.2]octan-1-yl)methyl)-N-(3-(3-cyclopropyl-1,2,4-oxadiazol-5-yl)phenyl)tetrahydro-2H-pyran-3-carboxamide]	226
O=C(C1CCC(F)(F)CC1)N(CC12CCC(c3nc(C4CC4)no3)(CC1)CC2)c1cccc(-c2nc3cc(F)ccc3o2)c1 [Example 93, N-((4-(3-cyclopropyl-1,2,4-oxadiazol-5-yl)bicyclo[2.2.2]octan-1-yl)methyl)-4,4-difluoro-N-(3-(5-fluorobenzo[d]oxazol-2-yl)phenyl)cyclohexane-1-carboxamide]	799
